Legend:
Type in all cases: biochemical
[1] = molecular target: T1, calpain-I isolated from human erythrocytes (Homo sapiens, UniProt P07384); assay: Calpain I enzyme inhibition in vitro (kinetic fluorescence assay); conditions: apparent Ki from IC50 (Cheng-Prussoff); 20 nM calpain-I, 100 μM Suc-Leu-Tyr-AMC, pH 7.3, room temperature
T1 construct: calpain-I—isolated from human erythrocytes; purchased Calbiochem 208713; host or cells: human erythrocytes (tissue-derived)
T1 sequence (P07384 1-714): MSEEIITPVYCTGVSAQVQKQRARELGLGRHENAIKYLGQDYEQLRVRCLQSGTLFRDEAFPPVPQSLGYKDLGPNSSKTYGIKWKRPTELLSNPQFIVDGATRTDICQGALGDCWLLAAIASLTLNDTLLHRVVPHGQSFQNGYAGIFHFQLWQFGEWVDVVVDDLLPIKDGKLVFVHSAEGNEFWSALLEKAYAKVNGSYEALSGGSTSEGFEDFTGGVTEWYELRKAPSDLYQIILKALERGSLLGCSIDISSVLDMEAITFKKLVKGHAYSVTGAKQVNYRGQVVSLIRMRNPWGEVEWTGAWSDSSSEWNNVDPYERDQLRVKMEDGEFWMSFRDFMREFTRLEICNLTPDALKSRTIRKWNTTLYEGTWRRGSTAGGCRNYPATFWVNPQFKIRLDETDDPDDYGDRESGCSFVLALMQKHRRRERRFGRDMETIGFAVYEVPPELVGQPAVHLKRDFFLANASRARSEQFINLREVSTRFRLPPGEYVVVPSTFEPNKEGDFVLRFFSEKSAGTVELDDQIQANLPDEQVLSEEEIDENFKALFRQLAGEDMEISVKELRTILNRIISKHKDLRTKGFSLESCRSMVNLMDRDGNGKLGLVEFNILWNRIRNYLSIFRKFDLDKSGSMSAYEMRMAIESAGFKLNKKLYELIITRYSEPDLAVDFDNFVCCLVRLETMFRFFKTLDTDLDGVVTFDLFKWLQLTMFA
T1 sequence (P04632 1-268 partner): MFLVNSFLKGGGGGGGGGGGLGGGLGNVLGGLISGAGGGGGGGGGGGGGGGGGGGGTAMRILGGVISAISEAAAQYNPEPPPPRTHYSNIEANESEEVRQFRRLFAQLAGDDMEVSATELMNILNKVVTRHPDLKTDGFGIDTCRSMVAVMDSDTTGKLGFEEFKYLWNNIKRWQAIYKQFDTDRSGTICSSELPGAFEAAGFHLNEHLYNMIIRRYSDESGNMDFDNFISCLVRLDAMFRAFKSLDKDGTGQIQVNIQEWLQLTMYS
Description: (§1) Testing for blockade of the corresponding enzymic activities was carried out by means of kinetic fluorescence assays (excitation 390 nm, emission 460 nm).
(§2) Apparent Ki values were calculated from the experimentally determined IC50 values by the Cheng-Prussoff relation assuming a reversible competitive enzyme inhibition. The Km values of the substrates used under the assay conditions indicated above were: 90 μM (Z-Phe-Arg-AMC, cathepsin B), 10 μM (Z-Gly-Pro-Arg-AMC, cathepsin K), 2 μM (Z-Phe-Arg-AMC, cathepsin L), and 30 μM (Z-Val-Val-Arg-AMC, cathepsin S).
(§3) The indicated Ki values are averages of the inhibition constants calculated on the basis of 2 to 4 independent dose-effect plots.
(§4) • 20 nM calpain-I—isolated from human erythrocytes (Calbiochem #208713), 100 μM Suc-Leu-Tyr-AMC (Bachem #I-1355) as substrate in buffer with 62 mM imidazole, 0.3 mM CaCl2, 0.10% CHAPS, 0.05% BSA, 1 mM DTT at pH 7.3 and room temperature. 1. Cathepsin B: • 0.25 nM cathepsin B—isolated from human liver (Calbiochem #219362), 100 μM Z-Phe-Arg-AMC (Bachem #I-1160) as substrate 50 mM MES, 2 mM EDTA, 0.05% Brij 35, 2.5 mM L-cysteine, pH 6.0, room temperature. 3. Cathepsin K: • 3 nM cathepsin K activated from recombinant human procathepsin K from E. coli (Calbiochem #342001), 10 μM Z-Gly-Pro-Arg-AMC (Biomol #P-142) as substrate in 50 mM MES, 2 mM EDTA, 0.05% Brij 35, 2.5 mM L-cysteine, pH 6.0, room temperature. 4. Cathepsin L: • 1 nM cathepsin L—isolated from human liver (Calbiochem #219402), 2 μM Z-Phe-Arg-AMC (Bachem #I-1160) as substrate in 50 mM MES, 2 mM EDTA, 0.05% Brij 35, 2.5 mM L-cysteine, pH 6.0, room temperature. 5. Cathepsin S: • 0.5 nM recombinant human cathepsin S from E. coli (Calbiochem #219343), 20 μM Z-Val-Val-Arg-AMC (Bachem #I-1540) as substrate in 50 mM MES, 2 mM EDTA, 0.05% Brij 35, 2.5 mM L-cysteine, pH 6.0, room temperature.

[2] = molecular target: T2, cathepsin B isolated from human liver (Homo sapiens, UniProt P07858); assay: Cathepsin B enzyme inhibition in vitro (kinetic fluorescence assay); conditions: Ki(cathepsin B)/Ki(calpain) ratio
T2 construct: cathepsin B—isolated from human liver; purchased Calbiochem 219362; host or cells: human liver (tissue-derived)
Description: as §1, §2, §3, §4

[3] = molecular target: T3, cathepsin K activated from recombinant human procathepsin K (Homo sapiens, UniProt P43235); assay: Cathepsin K enzyme inhibition in vitro (kinetic fluorescence assay); conditions: Ki(cathepsin K)/Ki(calpain) ratio
T3 construct: purchased Calbiochem 342001; host or cells: E. coli
T3 sequence (P43235 115-329): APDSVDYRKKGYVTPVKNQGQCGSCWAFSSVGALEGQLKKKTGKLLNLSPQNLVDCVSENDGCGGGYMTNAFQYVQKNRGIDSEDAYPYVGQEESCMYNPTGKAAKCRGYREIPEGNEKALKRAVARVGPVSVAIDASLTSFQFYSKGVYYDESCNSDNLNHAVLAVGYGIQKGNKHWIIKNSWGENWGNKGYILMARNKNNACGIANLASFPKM
Description: as §1, §2, §3, §4

[4] = molecular target: T4, recombinant human cathepsin S (Homo sapiens, UniProt P25774); assay: Cathepsin S enzyme inhibition in vitro (kinetic fluorescence assay); conditions: Ki(cathepsin S)/Ki(calpain) ratio
T4 construct: purchased Calbiochem 219343; host or cells: E. coli
Description: as §1, §2, §3, §4

T4 sequence (P25774 115-331): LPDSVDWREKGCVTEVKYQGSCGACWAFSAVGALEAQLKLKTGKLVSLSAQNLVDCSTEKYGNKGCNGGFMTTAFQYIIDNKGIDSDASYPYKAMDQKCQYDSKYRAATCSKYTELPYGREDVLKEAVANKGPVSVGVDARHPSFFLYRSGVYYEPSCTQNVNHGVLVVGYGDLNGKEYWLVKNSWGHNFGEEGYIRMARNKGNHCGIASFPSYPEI

| SMILES | Ki [1] [nM] | Sel cat. B [2] | Sel cat. K [3] | Sel cat. S [4] |
| --- | --- | --- | --- | --- |
| O=C(NC[C@H]1CCCO1)C(=O)C(Cc1ccccc1)NC(=O)[C@H]1CCC(=O)N1Cc1ccccc1 (mixture of isomers) [Example 69, (2R)-1-Benzyl-N-(3,4-dioxo-1-phenyl-4-(((R)-tetrahydrofuran-2-yl)methylamino)-butan-2-yl)-5-oxopyrrolidine-2-carboxamide] | 100 to 600 | – | – | – |
| COc1cccc(CN2C(=O)CC[C@@H]2C(=O)NC(Cc2ccccc2)C(=O)C(N)=O)c1 (stereo partly drawn) [Example 6, (2R)—N-(4-Amino-3,4-dioxo-1-phenylbutan-2-yl)-1-(3-methoxybenzyl)-5-oxopyrrolidine-2-carboxamide] | < 50 | + (5<Ki(cathepsin B)/Ki(calpain)≦10) | +++ (Ki(cathepsin K)/Ki(calpain) ratio of >30) | ++ (30<Ki(cathepsin B)/Ki(calpain)≦100) |
| O=C(NCc1nc2ccccc2s1)C(=O)C(Cc1ccccc1)NC(=O)[C@H]1CCC(=O)N1Cc1ccccc1 (stereo partly drawn) [Example 53, (2R)—N-(4-(Benzo[d]thiazol-2-ylmethylamino)-3,4-dioxo-1-phenylbutan-2-yl)-1-benzyl-5-oxopyrrolidine-2-carboxamide] | 50 to 100 | – | – | – |
| NC(=O)C(=O)C(Cc1ccccc1)NC(=O)[C@H]1CCC(=O)N1Cc1cccc2ccccc12 (stereo partly drawn) [Example 11, (2R)—N-(4-Amino-3,4-dioxo-1-phenylbutan-2-yl)-1-(naphthalen-1-ylmethyl)-5-oxopyrrolidine-2-carboxamide] | < 50 | ++ (10<Ki(cathepsin B)/Ki(calpain)≦30) | +++ (Ki(cathepsin K)/Ki(calpain) ratio of >30) | ++ (30<Ki(cathepsin B)/Ki(calpain)≦100) |
| O=C(C(=O)N1CCOCC1)C(Cc1ccccc1)NC(=O)[C@H]1CCC(=O)N1Cc1ccccc1 (mixture of isomers) [Example 54, (2R)-1-Benzyl-N-(4-morpholino-3,4-dioxo-1-phenylbutan-2-yl)-5-oxopyrrolidine-2-carboxamide] | 100 to 600 | – | – | – |
| O=C(NC[C@@H]1CCCO1)C(=O)C(Cc1ccccc1)NC(=O)[C@H]1CCC(=O)N1Cc1ccccc1 (stereo partly drawn) [Example 70, (2R)-1-Benzyl-N-(3,4-dioxo-1-phenyl-4-(((S)-tetrahydrofuran-2-yl)methylamino)-butan-2-yl)-5-oxopyrrolidine-2-carboxamide] | 50 to 100 | – | – | – |
| O=C(NCc1ccco1)C(=O)C(Cc1ccccc1)NC(=O)[C@H]1CCC(=O)N1Cc1ccccc1 (mixture of isomers) [Example 72, (2R)-1-Benzyl-N-(4-(furan-2-ylmethylamino)-3,4-dioxo-1-phenylbutan-2-yl)-5-oxopyrrolidine-2-carboxamide] | 50 to 100 | – | – | – |
| O=C(NCCc1ccsc1)C(=O)C(Cc1ccccc1)NC(=O)[C@H]1CCC(=O)N1Cc1ccccc1 (single isomer, unassigned) [Example 71] | < 50 | – | – | – |
| COc1cccc(C(F)(F)F)c1CN1C(=O)CC[C@@H]1C(=O)NC(Cc1ccccc1)C(=O)C(=O)NC1CC1 (mixture of isomers) [Example 74, (2R)—N-(4-(Cyclopropylamino)-3,4-dioxo-1-phenylbutan-2-yl)-1-(2-methoxy-6-(trifluoromethyl)benzyl)-5-oxopyrrolidine-2-carboxamide] | 100 to 600 | – | – | – |
| O=C(NCCc1ccccn1)C(=O)C(Cc1ccccc1)NC(=O)[C@H]1CCC(=O)N1Cc1ccccc1 (mixture of isomers) [Example 31, (2R)-1-Benzyl-N-(3,4-dioxo-1-phenyl-4-(2-(pyridin-2-yl)-ethylamino)butan-2-yl)-5-oxopyrrolidine-2-carboxamide] | 100 to 600 | – | ++ (10<Ki(cathepsin B)/Ki(calpain)≦30) | ++ (30<Ki(cathepsin B)/Ki(calpain)≦100) |
| CN1C[C@H](C(=O)NC(Cc2ccccc2)C(=O)C(N)=O)N(Cc2ccccc2)C1=O (stereo partly drawn) [Example 18, (4R)—N-(4-Amino-3,4-dioxo-1-phenylbutan-2-yl)-3-benzyl-1-methyl-2-oxoimidazolidine-4-carboxamide] | 100 to 600 | +++ (Ki(cathepsin B)/Ki(calpain) ratio of >30) | – | – |

Continued, values first:

| Ki [1] [nM] | Sel cat. B [2] | Sel cat. K [3] | Sel cat. S [4] | SMILES |
| --- | --- | --- | --- | --- |
| 100 to 600 | – | – | – | O=C(NCc1cncs1)C(=O)C(Cc1ccccc1)NC(=O)[C@H]1CCC(=O)N1Cc1ccccc1 (mixture of isomers) [Example 52, (2R)-1-Benzyl-N-(3,4-dioxo-1-phenyl-4-(thiazol-5-ylmethylamino)butan-2-yl)-5-oxopyrrolidine-2-carboxamide] |
| < 50 | – | + (5<Ki(cathepsin K)/Ki(calpain)≦10) | + (10<Ki(cathepsin S)/Ki(calpain)≦30) | NC(=O)C(=O)C(Cc1ccccc1)NC(=O)[C@H]1CCC(=O)N1Cc1ccc2ccccc2c1 (stereo partly drawn) [Example 12, (2R)—N-(4-Amino-3,4-dioxo-1-phenylbutan-2-yl)-1-(naphthalen-2-ylmethyl)-5-oxopyrrolidine-2-carboxamide] |
| 50 to 100 | ++ (10<Ki(cathepsin B)/Ki(calpain)≦30) | + (5<Ki(cathepsin K)/Ki(calpain)≦10) | ++ (30<Ki(cathepsin B)/Ki(calpain)≦100) | O=C(NCCCc1ccccn1)C(=O)C(Cc1ccccc1)NC(=O)[C@H]1CCC(=O)N1Cc1ccccc1 (mixture of isomers) [Example 32, (2R)-1-Benzyl-N-(3,4-dioxo-1-phenyl-4-(3-(pyridin-2-yl)propylamino)butan-2-yl)-5-oxopyrrolidine-2-carboxamide] |
| 50 to 100 | ++ (10<Ki(cathepsin B)/Ki(calpain)≦30) | – | + (10<Ki(cathepsin S)/Ki(calpain)≦30) | NC(=O)C(=O)C(Cc1ccccc1)NC(=O)c1cccc(=O)n1Cc1ccccc1 (centres unmarked) [Example 4, N-(4-Amino-3,4-dioxo-1-phenylbutan-2-yl)-1-benzyl-6-oxo-1,6-dihydropyridine-2-carboxamide] |
| 100 to 600 | – | – | – | CCNC(=O)C(=O)C(Cc1ccccc1)NC(=O)[C@H]1CCC(=O)N1Cc1ccc(C(F)(F)F)cc1 (mixture of isomers) [Example 55, (2R)—N-(4-(ethylamino)-3,4-dioxo-1-phenylbutan-2-yl)-5-oxo-1-(4-(trifluoromethyl)benzyl)pyrrolidine-2-carboxamide] |

From patent US9018206B2, “Carboxamide compounds and their use as calpain inhibitors” (AbbVie Deutschland GmbH & Co. KG, priority 2009, dated 2015)
